ChEMBL document CHEMBL3045108, “Advanced QSRR models of toxicological screening of basic drugs in whole blood by UPLC-TOFMS” (Med Chem Res, 2012)

system: Blood; experiment: Drug level in Homo sapiens (human) whole blood assessed as retention time by UPLC-TOF-MS analysis

| SMILES | Retention_time [min] |
| --- | --- |
| Cc1nnc2n1-c1sc(Br)cc1C(c1ccccc1Cl)=NC2 [BROTIZOLAM] | 6.27 |
| Cc1ccc(-c2nc3ccc(C)cn3c2CC(=O)N(C)C)cc1 [ZOLPIDEM] | 4.78 |
| CN(C)CCCN1c2ccccc2Sc2ccc(Cl)cc21 [CHLORPROMAZINE] | 6.12 |
| COC(=O)C(c1ccccc1)C1CCCCN1 (stereo not drawn) [METHYLPHENIDATE] | 4.16 |
| Cc1ccccc1-n1c(C)nc2ccccc2c1=O [METHAQUALONE] | 6.02 |
| CN(C)CCC=C1c2ccccc2COc2ccccc21 [DOXEPIN] | 5.59 |
| CN1CC[C@]23c4c5ccc(O)c4O[C@H]2C(=O)CC[C@@]3(O)[C@H]1C5 [OXYMORPHONE] | 1.78 |
| COC(=O)C1=C(C)NC(C)=C(C(=O)OC(C)(C)CN(C)CCC(c2ccccc2)c2ccccc2)C1c1cccc([N+](=O)[O-])c1 (stereo not drawn) [LERCANIDIPINE] | 6.8 |
| COc1cc(CC(C)N)c(OC)cc1C (stereo not drawn) [DOM] | 4.67 |
| OCc1cc(C(O)CNCCCCCCOCCCCc2ccccc2)ccc1O (stereo not drawn) [SALMETEROL] | 6.14 |
| C(=C\c1ccccc1)/CN1CCN(C(c2ccccc2)c2ccccc2)CC1 [CINNARIZINE] | 6.57 |
| COc1ccc2c(c1)N(C[C@H](C)CN(C)C)c1ccccc1S2 [LEVOMEPROMAZINE] | 5.98 |
| CCOC(=O)C1=C(COCCN)NC(C)=C(C(=O)OC)C1c1ccccc1Cl (stereo not drawn) [AMLODIPINE] | 5.94 |
| CCC(=O)C(CC(C)N(C)C)(c1ccccc1)c1ccccc1 (stereo not drawn) [METHADONE] | 6.03 |
| COc1ccc(N2CCNCC2)cc1 | 2.59 |
| COC(=O)C1=C(C)NC(C)=C(C(=O)OC(C)C)C1c1cccc2nonc12 (stereo not drawn) [ISRADIPINE] | 7 |
| CN(C)c1nc(N)c(C(=O)NC(=N)N)nc1Cl | 3.54 |
| COCCCC/C(=N\OCCN)c1ccc(C(F)(F)F)cc1 [FLUVOXAMINE] | 5.91 |
| COCCOC(=O)C1=C(C)NC(C)=C(C(=O)OC(C)C)C1c1cccc([N+](=O)[O-])c1 (stereo not drawn) [NIMODIPINE] | 7.14 |
| Cc1ccccc1C(OCCN(C)C)c1ccccc1 (stereo not drawn) [ORPHENADRINE] | 5.75 |
| CCN(CC)CCN1C(=O)CN=C(c2ccccc2F)c2cc(Cl)ccc21 [FLURAZEPAM] | 5.53 |

| SMILES | Retention_time [min] |
| --- | --- |
| CC(C=C(c1ccccc1)c1ccccc1)N(C)C (stereo not drawn) | 5.72 |
| COc1cccc(C2(O)CCCCC2CN(C)C)c1 (stereo not drawn) [TRAMADOL] | 4.09 |
| O=C1CN=C(c2ccccc2Cl)c2cc([N+](=O)[O-])ccc2N1 [CLONAZEPAM] | 5.99 |
| CN(C)C(=O)Oc1cc(OC(=O)N(C)C)cc(C(O)CNC(C)(C)C)c1 (stereo not drawn) [BAMBUTEROL] | 4.84 |
| COc1ccc(CCN(C)CCCC(C#N)(c2ccc(OC)c(OC)c2)C(C)C)cc1OC (stereo not drawn) | 5.95 |
| CN[C@H]1CC[C@@H](c2ccc(Cl)c(Cl)c2)c2ccccc21 [SERTRALINE] | 6.04 |
| NCCC(Oc1ccc(C(F)(F)F)cc1)c1ccccc1 (stereo not drawn) [NORFLUOXETINE] | 6 |
| COc1ccccc1OCCNCC(O)COc1cccc2[nH]c3ccccc3c12 (stereo not drawn) [CARVEDILOL] | 5.71 |
| COc1cc2nc(N3CCN(C(=O)C4COc5ccccc5O4)CC3)nc(N)c2cc1OC (stereo not drawn) [DOXAZOSIN] | 5.43 |
| COc1cc(CCN)cc(OC)c1OC [MESCALINE] | 2.77 |
| CNC1=Nc2ccc(Cl)cc2C(c2ccccc2)=[N+]([O-])C1 [CHLORDIAZEPOXIDE] | 4.94 |
| CCOC(=O)[C@H](CCc1ccccc1)N[C@@H](C)C(=O)N1CCC[C@H]1C(=O)O | 5.23 |
| C#CCN(C)[C@H](C)Cc1ccccc1 [SELEGILINE] | 3.55 |
| O=C(NCC1CCCCN1)c1cc(OCC(F)(F)F)ccc1OCC(F)(F)F (stereo not drawn) [FLECAINIDE] | 5.58 |
| Fc1ccccc1C1=NCC(=S)N(CC(F)(F)F)c2ccc(Cl)cc21 [QUAZEPAM] | 7.59 |
| CCCc1nc(C)c2c(=O)[nH]c(-c3cc(S(=O)(=O)N4CCN(CC)CC4)ccc3OCC)nn12 | 5.17 |
| O=C(CCCN1CCC(O)(c2ccc(Cl)cc2)CC1)c1ccc(F)cc1 [HALOPERIDOL] | 5.57 |
| CNC1(c2ccccc2Cl)CCCCC1=O (stereo not drawn) [KETAMINE] | 3.57 |
| CCC(Cc1ccc2c(c1)OCO2)NC (stereo not drawn) | 3.61 |
| Nc1ccc2c(c1)C(c1ccccc1)=NCC(=O)N2 [7-AMINO-NITRAZEPAM] | 2.26 |
| CNCCCC1(c2ccc(F)cc2)OCc2cc(C#N)ccc21 (stereo not drawn) | 5.47 |

| SMILES | Retention_time [min] |
| --- | --- |
| CC(N)Cc1ccc2c(c1)OCO2 (stereo not drawn) [TENAMFETAMINE] | 2.7 |
| C[C@@H](Cc1ccccc1)N(C)Cc1ccccc1 [BENZPHETAMINE] | 5.24 |
| CCOc1ccccc1OC(c1ccccc1)C1CNCCO1 (stereo not drawn) [REBOXETINE] | 5.6 |
| CC(C)(C)NCC(O)c1cc(O)cc(O)c1 (stereo not drawn) [TERBUTALINE] | 1.93 |
| O=C1CC2(CCCC2)CC(=O)N1CCCCN1CCN(c2ncccn2)CC1 [BUSPIRONE] | 5.14 |
| CN1CC[C@@]23CCCC[C@@H]2[C@@H]1Cc1ccc(O)cc13 [DEXTRORPHAN] | 3.82 |
| CCCc1nn(C)c2c(=O)[nH]c(-c3cc(S(=O)(=O)N4CCN(C)CC4)ccc3OCC)nc12 | 5.54 |
| COc1ccc2c(c1OC)C(=O)O[C@@H]2[C@H]1c2c(cc3c(c2OC)OCO3)CCN1C [NOSCAPINE] | 4.99 |
| OCCOCCN1CCN(C2=Nc3ccccc3Sc3ccccc32)CC1 [QUETIAPINE] | 5.35 |
| CC(CN1c2ccccc2Sc2ccccc21)N(C)C (stereo not drawn) [PROMETHAZINE] | 5.7 |
| COc1ccc2c3c1O[C@H]1C(=O)CC[C@H]4[C@@H](C2)N(C)CC[C@]314 [HYDROCODONE] | 2.96 |
| Cc1nnc2n1-c1ccc(Cl)cc1C(c1ccccc1Cl)=NC2 [TRIAZOLAM] | 6.15 |
| CN[C@@H](C)Cc1ccccc1 [METHAMPHETAMINE] | 2.86 |
| CN1[C@H]2CC[C@@H]1[C@@H](C(=O)O)[C@@H](OC(=O)c1ccccc1)C2 [THERACYS] | 3.48 |
| O=c1[nH]c2ccccc2n1C1CCN(CCCC(c2ccc(F)cc2)c2ccc(F)cc2)CC1 [PIMOZIDE] | 6.28 |
| CO[C@]12CC[C@@]3(C[C@@H]1[C@](C)(O)C(C)(C)C)[C@H]1Cc4ccc(O)c5c4[C@@]3(CCN1CC1CC1)[C@H]2O5 [BUPRENORPHINE] | 5.59 |
| O=C1CCc2ccc(OCCCCN3CCN(c4cccc(Cl)c4Cl)CC3)cc2N1 [ARIPIPRAZOLE] | 5.9 |
| CCN(C(C)=O)c1cccc(-c2ccnc3c(C#N)cnn23)c1 [ZALEPLON] | 5.68 |
| CN1CCN(C2=Nc3cc(Cl)ccc3Nc3ccccc32)CC1 [CLOZAPINE] | 5.1 |
| CCCCc1nc(Cl)c(CO)n1Cc1ccc(-c2ccccc2-c2nn[nH]n2)cc1 [LOSARTAN] | 6.09 |
| COc1cc(CCN)c(OC)cc1I | 4.92 |
